Data on 17 molecules can be found in patent US20230093099A1, “COMPOUNDS AND METHODS OF TREATING CANCERS” (CULLGEN (SHANGHAI), INC., priority 2019, published 2023).

For this experiment, the system named is RS4;11 cells. The experiment in a line: Cell viability assay (CellTiter-Glo) in RS4;11 cells. The class given is cell-based. As to conditions: Homo sapiens, 72 h; RS4;11 cells; cell viability, 3 days, CellTiter-Glo; read-out: IC50. An outline of the steps:
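Three-day compound treatment of RS4;11 ALL cells (5000/well, 3-fold dilution series of 8 or 12 points), with IC50 from a nonlinear least-squares fit to CellTiter-Glo viability data.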
A general note: ATP-based viability assays read luminescence as a measure of living cells.
By IC50 is commonly meant the concentration that inhibits the measured activity by half. On to `Cc1ncsc1-c1ccc(CNC(=O)[C@@H]2C[C@@H](O)CN2C(=O)[C@@H](NC(=O)CCOCCOCCNC(=O)CN2CCN(c3ccc(Nc4nc5cccc(-c6ccc(S(C)(=O)=O)cc6)n5n4)cc3)CC2)C(C)(C)C)cc1` [JA-135, (2S,4R)-1-((S)-14-(tert-Butyl)-1-(4-(4-((5-(4-(methylsulfonyl)phenyl)-[1,2,4]triazolo[1,5-a]pyridin-2-yl)amino)phenyl)piperazin-1-yl)-2,12-dioxo-6,9-dioxa-3,13-diazapentadecan-15-oyl)-4-hydroxy-N-(4-(4-methylthiazol-5-yl)benzyl)pyrrolidine-2-carboxamide], for which the IC50 was > 10 µM.

Consider `Cc1ncsc1-c1ccc(CNC(=O)[C@@H]2C[C@@H](O)CN2C(=O)[C@@H](NC(=O)CCOCCNC(=O)CN2CCN(c3ccc(Nc4nc5cccc(-c6ccc(S(C)(=O)=O)cc6)n5n4)cc3)CC2)C(C)(C)C)cc1` [JA-136, (2S,4R)-1-((S)-3,3-Dimethyl-2-(3-(2-(2-(4-(4-((5-(4-(methylsulfonyl)phenyl)-[1,2,4]triazolo[1,5-a]pyridin-2-yl)amino)phenyl)piperazin-1-yl)acetamido)ethoxy)propanamido)butanoyl)-4-hydroxy-N-(4-(4-methylthiazol-5-yl)benzyl)pyrrolidine-2-carboxamide], for which the IC50 was > 10 µM.

On to `Cc1ncsc1-c1ccc(CNC(=O)[C@@H]2C[C@@H](O)CN2C(=O)[C@@H](NC(=O)CCOCCOCCOCCNC(=O)CN2CCN(c3ccc(Nc4nc5cccc(-c6ccc(S(C)(=O)=O)cc6)n5n4)cc3)CC2)C(C)(C)C)cc1` [JA-137, (2S,4R)-1-((S)-17-(tert-Butyl)-1-(4-(4-((5-(4-(methylsulfonyl)phenyl)-[1,2,4]triazolo[1,5-a]pyridin-2-yl)amino)phenyl)piperazin-1-yl)-2,15-dioxo-6,9,12-trioxa-3,16-diazaoctadecan-18-oyl)-4-hydroxy-N-(4-(4-methylthiazol-5-yl)benzyl)pyrrolidine-2-carboxamide], for which the half-inhibitory concentration (IC50) was > 10 µM.

Regarding `Cc1ncsc1-c1ccc(CNC(=O)[C@@H]2C[C@@H](O)CN2C(=O)[C@@H](NC(=O)CCOCCOCCOCCOCCOCCNC(=O)CN2CCN(c3ccc(Nc4nc5cccc(-c6ccc(S(C)(=O)=O)cc6)n5n4)cc3)CC2)C(C)(C)C)cc1` [JA-138, (2S,4R)-1-((S)-23-(tert-Butyl)-1-(4-(4-((5-(4-(methylsulfonyl)phenyl)-[1,2,4]triazolo[1,5-a]pyridin-2-yl)amino)phenyl)piperazin-1-yl)-2,21-dioxo-6,9,12,15,18-pentaoxa-3,22-diazatetracosan-24-oyl)-4-hydroxy-N-(4-(4-methylthiazol-5-yl)benzyl)pyrrolidine-2-carboxamide], the half-maximal inhibitory concentration (IC50) was > 10 µM.

With `O=C(CN1CCC(n2cc(-c3cnc4cccc(-c5cc(F)c(CN6CCOCC6)c(F)c5)c4n3)cn2)CC1)NCCOCCNc1cccc2c1C(=O)N(C1CCC(=O)NC1=O)C2=O` (centres unmarked) [JA-139, 2-[4-[4-[8-[3,5-Difluoro-4-(morpholinomethyl)phenyl]quinoxalin-2-yl]pyrazol-1-yl]-1-piperidyl]-N-[2-[2-[[2-(2,6-dioxo-3-piperidyl)-1,3-dioxo-isoindolin-4-yl]amino]ethoxy]ethyl]acetamide], the IC50 is > 10 µM.

For `O=C(CN1CCC(n2cc(-c3cnc4cccc(-c5cc(F)c(CN6CCOCC6)c(F)c5)c4n3)cn2)CC1)NCCOCCOCCNc1cccc2c1C(=O)N(C1CCC(=O)NC1=O)C2=O` (centres unmarked) [JA-140, 2-[4-[4-[8-[3,5-Difluoro-4-(morpholinomethyl)phenyl]quinoxalin-2-yl]pyrazol-1-yl]-1-piperidyl]-N-[2-[2-[2-[[2-(2,6-dioxo-3-piperidyl)-1,3-dioxo-isoindolin-4-yl]amino]ethoxy]ethoxy]ethyl]acetamide], the IC50 was > 10 µM.

Consider `O=C(CN1CCC(n2cc(-c3cnc4cccc(-c5cc(F)c(CN6CCOCC6)c(F)c5)c4n3)cn2)CC1)NCCOCCOCCOCCNc1cccc2c1C(=O)N(C1CCC(=O)NC1=O)C2=O` (centres unmarked) [JA-141, 2-[4-[4-[8-[3,5-Difluoro-4-(morpholinomethyl)phenyl]quinoxalin-2-yl]pyrazol-1-yl]-1-piperidyl]-N-[2-[2-[2-[2-[[2-(2,6-dioxo-3-piperidyl)-1,3-dioxo-isoindolin-4-yl]amino]ethoxy]ethoxy]ethoxy]ethyl]acetamide], for which the IC50 is > 10 µM.

For the molecule `O=C(CN1CCC(n2cc(-c3cnc4cccc(-c5cc(F)c(CN6CCOCC6)c(F)c5)c4n3)cn2)CC1)NCCOCCOCCOCCOCCNc1cccc2c1C(=O)N(C1CCC(=O)NC1=O)C2=O` (centres unmarked) [JA-142, 2-[4-[4-[8-[3,5-Difluoro-4-(morpholinomethyl)phenyl]quinoxalin-2-yl]pyrazol-1-yl]-1-piperidyl]-N-[2-[2-[2-[2-[2-[[2-(2,6-dioxo-3-piperidyl)-1,3-dioxo-isoindolin-4-yl]amino]ethoxy]ethoxy]ethoxy]ethoxy]ethyl]acetamide], the IC50 is > 10 µM.

For `O=C(CN1CCC(n2cc(-c3cnc4cccc(-c5cc(F)c(CN6CCOCC6)c(F)c5)c4n3)cn2)CC1)NCCOCCOCCOCCOCCOCCNc1cccc2c1C(=O)N(C1CCC(=O)NC1=O)C2=O` (centres unmarked) [JA-143, 2-[4-[4-[8-[3,5-Difluoro-4-(morpholinomethyl)phenyl]quinoxalin-2-yl]pyrazol-1-yl]-1-piperidyl]-N-[2-[2-[2-[2-[2-[2-[[2-(2,6-dioxo-3-piperidyl)-1,3-dioxo-isoindolin-4-yl]amino]ethoxy]ethoxy]ethoxy]ethoxy]ethoxy]ethyl]acetamide], the IC50 was > 10 µM.

For the molecule `O=C(CN1CCC(n2cc(-c3cnc4cccc(-c5cc(F)c(CN6CCOCC6)c(F)c5)c4n3)cn2)CC1)NCCNc1cccc2c1C(=O)N(C1CCC(=O)NC1=O)C2=O` (centres unmarked) [JA-144, 2-[4-[4-[8-[3,5-Difluoro-4-(morpholinomethyl)phenyl]quinoxalin-2-yl]pyrazol-1-yl]-1-piperidyl]-N-[2-[[2-(2,6-dioxo-3-piperidyl)-1,3-dioxo-isoindolin-4-yl]amino]ethyl]acetamide], the IC50 was determined as 2.39 µM.

With `O=C(CN1CCC(n2cc(-c3cnc4cccc(-c5cc(F)c(CN6CCOCC6)c(F)c5)c4n3)cn2)CC1)NCCCCNc1cccc2c1C(=O)N(C1CCC(=O)NC1=O)C2=O` (centres unmarked) [JA-146, 2-(4-(4-(8-(3,5-Difluoro-4-(morpholinomethyl)phenyl)quinoxalin-2-yl)-1H-pyrazol-1-yl)piperidin-1-yl)-N-(4-((2-(2,6-dioxopiperidin-3-yl)-1,3-dioxoisoindolin-4-yl)amino)butyl)acetamide], the IC50 was > 10 µM.

Take `O=C(CN1CCC(n2cc(-c3cnc4cccc(-c5cc(F)c(CN6CCOCC6)c(F)c5)c4n3)cn2)CC1)NCCCCCCNc1cccc2c1C(=O)N(C1CCC(=O)NC1=O)C2=O` (centres unmarked) [JA-147, 2-(4-(4-(8-(3,5-Difluoro-4-(morpholinomethyl)phenyl)quinoxalin-2-yl)-1H-pyrazol-1-yl)piperidin-1-yl)-N-(6-((2-(2,6-dioxopiperidin-3-yl)-1,3-dioxoisoindolin-4-yl)amino)hexyl)acetamide]: the IC50 is > 10 µM.

In the case of `O=C(CN1CCC(n2cc(-c3cnc4cccc(-c5cc(F)c(CN6CCOCC6)c(F)c5)c4n3)cn2)CC1)NCCCCCCCNc1cccc2c1C(=O)N(C1CCC(=O)NC1=O)C2=O` (centres unmarked) [JA-148, 2-(4-(4-(8-(3,5-Difluoro-4-(morpholinomethyl)phenyl)quinoxalin-2-yl)-1H-pyrazol-1-yl)piperidin-1-yl)-N-(7-((2-(2,6-dioxopiperidin-3-yl)-1,3-dioxoisoindolin-4-yl)amino)heptyl)acetamide], the IC50 is > 10 µM.

For the molecule `O=C(CN1CCC(n2cc(-c3cnc4cccc(-c5cc(F)c(CN6CCOCC6)c(F)c5)c4n3)cn2)CC1)NCCCCCCCCNc1cccc2c1C(=O)N(C1CCC(=O)NC1=O)C2=O` (centres unmarked) [JA-149, 2-(4-(4-(8-(3,5-Difluoro-4-(morpholinomethyl)phenyl)quinoxalin-2-yl)-1H-pyrazol-1-yl)piperidin-1-yl)-N-(8-((2-(2,6-dioxopiperidin-3-yl)-1,3-dioxoisoindolin-4-yl)amino)octyl)acetamide], the IC50 is > 10 µM.

Turning to `Cc1ncsc1-c1ccc(CNC(=O)[C@@H]2C[C@@H](O)CN2C(=O)[C@@H](NC(=O)CCCCCCCCCCNC(=O)CN2CCC(n3cc(-c4cnc5cccc(-c6cc(F)c(CN7CCOCC7)c(F)c6)c5n4)cn3)CC2)C(C)(C)C)cc1` [JA-150, (2S,4R)-1-((S)-2-(11-(2-(4-(4-(8-(3,5-Difluoro-4-(morpholinomethyl)phenyl)quinoxalin-2-yl)-1H-pyrazol-1-yl)piperidin-1-yl)acetamido)undecanamido)-3,3-dimethylbutanoyl)-4-hydroxy-N-(4-(4-methylthiazol-5-yl)benzyl)pyrrolidine-2-carboxamide], the IC50 is 2.25 µM.

For the molecule `Cc1ncsc1-c1ccc(CNC(=O)[C@@H]2C[C@@H](O)CN2C(=O)[C@@H](NC(=O)CCOCCOCCOCCNC(=O)CN2CCC(n3cc(-c4cnc5cccc(-c6cc(F)c(CN7CCOCC7)c(F)c6)c5n4)cn3)CC2)C(C)(C)C)cc1` [JA-151, (2S,4R)-1-((S)-17-(tert-Butyl)-1-(4-(4-(8-(3,5-difluoro-4-(morpholinomethyl)phenyl)quinoxalin-2-yl)-1H-pyrazol-1-yl)piperidin-1-yl)-2,15-dioxo-6,9,12-trioxa-3,16-diazaoctadecan-18-oyl)-4-hydroxy-N-(4-(4-methylthiazol-5-yl)benzyl)pyrrolidine-2-carboxamide], the IC50 was > 10 µM.

Turning to `Cc1ncsc1-c1ccc(CNC(=O)[C@@H]2C[C@@H](O)CN2C(=O)[C@@H](NC(=O)CCCNC(=O)CN2CCC(n3cc(-c4cnc5cccc(-c6cc(F)c(CN7CCOCC7)c(F)c6)c5n4)cn3)CC2)C(C)(C)C)cc1` [JA-152, (2S,4R)-1-((S)-2-(4-(2-(4-(4-(8-(3,5-Difluoro-4-(morpholinomethyl)phenyl)quinoxalin-2-yl)-1H-pyrazol-1-yl)piperidin-1-yl)acetamido)butanamido)-3,3-dimethylbutanoyl)-4-hydroxy-N-(4-(4-methylthiazol-5-yl)benzyl)pyrrolidine-2-carboxamide], the half-maximal inhibitory concentration (IC50) is > 10 µM.
